# From patent publication US20230381205A1, “COMPOSITIONS AND METHODS FOR TREATING NEURONAL DISORDERS WITH CANNABINOIDS” (INMED PHARMACEUTICALS INC., priority 2020, published 2023)
# Key:
# [1] = system: differentiated SH-SY5Y human neuronal cells; experiment: MTT assay: cytotoxicity of the substance alone (primary screen, no added insult); type: cell-based
# Method: (§1) Cell Culture and Differentiation: The SH-SY5Y human neuronal cell line was derived from neuroblastoma established from a metastatic bone tumor (patient with neuroblastoma). The cells were maintained in DMEM:F12 culture medium supplemented with 10% FBS and 1% Antibiotic-Antimycotic penicillin/streptomycin (growth medium) at 37° C. in a humidified atmosphere of 5% CO2. To induce neuronal differentiation of SH-SY5Y cells, culture media was replaced by a growth medium containing Retinoic Acid (RA) for 4-5 days at 37° C. in a humidified atmosphere of 5% CO2.
# (§2) Compounds and Dosing Formulations: Selected cannabinoids: CBD, CBDA, CBC, CBG, CBGA, CBN, CBND and Δ^9-THC were procured from Cayman Chemicals and TRC. Ethanol (100%) was used as the solvent to prepare 1 and 10 mM stock solutions. Treatment concentrations for CBGA were prepared at 0.5 μM, 1.5 μM, 5 μM, 10 μM, 15 μM, 20 μM. Treatment concentrations for CBD, CBDA, CBC, CBN, CBND and Δ^9-THC were prepared at 0.5, 1.5, 5 and for CBG at 0.5 μM, 1.5 μM, 5 μM, 10 μM, 15 μM. Treatments were prepared directly in the control medium (DMEM:F12+5% FBS+1% Antibiotic-Antimycotic) by using appropriate stock solutions.
# (§3) Evaluation of Cytotoxicity and Neuroprotection: Evaluation of cannabinoids neuroprotection and cytotoxicity on differentiated SH-SY5Y human neuronal cells was carried out by MTT (3-(4,5-dimethylthiazol-2-yl)-2,5-diphenyltetrazolium bromide) assay. Initially, cannabinoid cytotoxicity and neuroprotection were evaluated in a primary screen assay without the presence of cytotoxicity inducing insult agents. […] The Retinoic Acid (RA) differentiated SH-SY5Y neuronal cells were seeded onto 96-well plates (10,000 cells/well) in DMEM:F12 complete medium. Cells were differentiated for 4-5 days in the presence of RA.
# (§4) MTT Assay: For the MTT assay, differentiated SH-SY5Y neuronal cells were treated with cannabinoids at various concentrations for 72 hrs in the presence of STSR at 75 nM, 100 nM, 150 nM and 200 nM or for 24 hrs in the presence of […] at 5 μM, respectively and processed to determine cytotoxicity. Briefly, 5 mg/mL of methylthiazolyldiphenyl-tetrazolium bromide (Sigma-Aldrich) stock solution was prepared in PBS. Following treatment of SH-SY5Y neuronal cells with cannabinoids for 72 hrs, the cells were incubated with 20 μL of MTT stock solution in 200 μL DMEM for 2 hrs at 37° C. Following subsequent washes with PBS, 200 μL of isopropanol was added to each well. The resulting change in color from dissolving formazan salt was immediately quantified using a spectrophotometer (BMG Labtech) at a wavelength of 570 nm. […] The results are illustrated in FIGS. 1-7.
# [2] = system: differentiated SH-SY5Y human neuronal cells; experiment: MTT assay: neuroprotection from Staurosporin (STSR) induced cytotoxicity; type: cell-based
# Method: as §1, §2, §3, §4
# [3] = system: differentiated SH-SY5Y human neuronal cells; experiment: MTT assay: neuroprotection from Aβ1-42 induced cytotoxicity; type: cell-based; details: FIG. 7
# Method: as §1, §2, §3, §4
# [4] = system: differentiated SH-SY5Y cells; experiment: Immunocytochemistry of TuJ1 and neuronal morphology; type: cell-based, human; details: 5 μM and 10 μM, FIG. 14
# Method: FIG. 14 Morphological characterization of CBGA, THC and CBN mediated changes in differentiated SH-SY5Y cells. SH-SY5Y cells were differentiated with RA (10 μM) for 5 days as indicated. (A) Representative confocal photomicrographs showing changes in the cellular distribution of Tuj1 in RA induced differentiated SH-SY5Y cells following treatment with CBGA, THC and CBN. (B) Histogram showing the effect of CBGA, CBN, THC on neurite length.
smiles,measurement,setting,value
"CCCCCc1cc(O)c(C/C=C(\C)CCC=C(C)C)c(O)c1C(=O)O [CBGA, 3-[(2E)-3,7-dimethylocta-2,6-dienyl]-2,4-dihydroxy-6-pentylbenzoic acid]",effect on survival in primary screen,"[1]; 1.5 μM, 5 μM and 15 μM, FIG. 1",pro-survival neuroprotective effect
same,Cell Death (%) vs Vehicle Control,"[1]; 15 μM, pre-screen, FIG. 1",pro-survival
same,cell death under basal conditions,"[1]; CBGA alone up to 20 μM, FIG. 4",did not result in cell death
same,cell proliferation under basal conditions,"[1]; CBGA alone up to 20 μM, FIG. 4",induced dose-dependent cell proliferation
same,neuroprotection against STSR insult-induced cytotoxicity,"[2]; 0.5 μM to 20 μM with STSR 75 nM, FIG. 5",significant dose-dependent neuroprotection
same,neuroprotection against STSR-induced cytotoxicity,"[2]; 0.5 μM, 1.5 μM and 5 μM with STSR 75 nM, 72 hrs, FIG. 3",significant neuroprotection
same,"Cell Death (%) vs STSR at 75 nM, significance","[2]; 5 μM with STSR 75 nM, compared to STSR-alone, One-Way ANOVA, FIG. 3",Statistically significant neuroprotection
same,protection from STSR induced cytotoxicity,"[2]; 5 μM, 10 μM and 15 μM with STSR 75 nM, FIG. 6",protected
same,"Cell Death (%) vs STSR, significance","[2]; 10 μM and 15 μM with STSR 75 nM, FIG. 6",Statistically significant neuroprotection
same,protection from Aβ1-42 induced insult,"[3]; 0.15 μM, 0.5 μM, 1.5 μM, 5 μM, 10 μM and 15 μM with Aβ1-42 5 μM, dose-dependent",protected cells
same,effect with Aβ1-42 at the highest concentration,[3]; 20 μM with Aβ1-42 5 μM,resulted in cell death
same,"TuJ1 expression, immunocytochemistry",[4],promotes upregulation of TuJ1 expression
